Test results taken from patent US11384055B2 (BIOMARIN PHARMACEUTICAL INC., priority 2017, dated 2022).

These compounds were tested against T1, Human GO (Homo sapiens, UniProt Q9UJM8) (assay: GO enzymatic assay (coupled fluorescence/HRP assay, glycolate substrate)). Conditions: not given.
T1 construct: purchased Novus Biologicals NBP1-72412
T1 sequence (Q9UJM8 1-370): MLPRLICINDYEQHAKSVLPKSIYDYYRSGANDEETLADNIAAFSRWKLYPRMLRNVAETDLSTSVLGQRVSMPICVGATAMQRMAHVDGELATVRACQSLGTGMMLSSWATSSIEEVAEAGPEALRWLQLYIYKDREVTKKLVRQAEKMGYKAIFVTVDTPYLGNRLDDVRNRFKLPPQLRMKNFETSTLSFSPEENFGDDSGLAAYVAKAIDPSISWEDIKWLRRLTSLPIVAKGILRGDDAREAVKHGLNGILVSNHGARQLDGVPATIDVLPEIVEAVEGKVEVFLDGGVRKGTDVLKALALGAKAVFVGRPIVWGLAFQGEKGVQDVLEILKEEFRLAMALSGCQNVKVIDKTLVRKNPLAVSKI
Assay type: biochemical
Experimental: Assay 1: GO Enzymatic Assay
GO was incubated with its substrate, glycolate, in 50 mM potassium phosphate buffer, pH 7. […] The enzyme was optimized and the kinetics was determined.
Compound inhibition was determined by adding various concentrations of inhibitors in the GO enzyme assay. The IC50 value for each measured compound was generated from sigmoidal dose-response (variable slope) curves with GraphPad Prism software (GraphPad Software, Inc., San Diego, Calif.) using the percent inhibition of GO activity relative to DMSO control.

Compound | IC50
O=C(O)c1[nH]nnc1Oc1ccc(-c2ccc(Cl)cc2)cc1 [Compound 86, 4-((4′-chloro-[1,1′-biphenyl]-4-yl)oxy)-1H-1,2,3-triazole-5-carboxylic acid] | < 100 nM
O=C(O)c1[nH]nnc1Oc1ccc(Cl)c(Cl)c1 [Compound 88, 4-(3,4-dichlorophenoxy)-1H-1,2,3-triazole-5-carboxylic acid] | < 100 nM
O=C(O)c1[nH]nnc1Oc1ccc(F)c(F)c1 [Compound 94, 4-(3,4-difluorophenoxy)-1H-1,2,3-triazole-5-carboxylic acid] | < 100 nM
CC(C)(C)C(=O)OCn1nnc(Oc2ccc(Cl)c(Cl)c2)c1C(=O)O [Compound 102, 4-(3,4-dichlorophenoxy)-1-((pivaloyloxy)methyl)-1H-1,2,3-triazole-5-carboxylic acid] | 100 to 1000 nM
CC(C)C(=O)OCn1nnc(Oc2ccc(Cl)c(Cl)c2)c1C(=O)O [Compound 103, 4-(3,4-dichlorophenoxy)-1-((isobutyryloxy)methyl)-1H-1,2,3-triazole-5-carboxylic acid] | 100 to 1000 nM
CC(=O)OCn1nnc(Oc2ccc(Cl)c(Cl)c2)c1C(=O)O [Compound 104, 1-(acetoxymethyl)-4-(3,4-dichlorophenoxy)-1H-1,2,3-triazole-5-carboxylic acid] | 100 to 1000 nM

Same assay, conditions: Table 1; read-out: Range (range of IC50 values calculated from the enzymatic assays)

Compound | IC50
O=C(O)c1[nH]nnc1NCc1ccc(-c2ccc(Cl)c(Cl)c2)cc1 [Compound 68, 4-(((3′,4′-dichloro-[1,1′-biphenyl]-4-yl)methyl)amino)-1H-1,2,3-triazole-5-carboxylic acid] | < 100 nM
O=C(O)c1[nH]nnc1Nc1ccc(Cl)c(Cl)c1 [Compound 69, 4-((3,4-dichlorophenyl)amino)-1H-1,2,3-triazole-5-carboxylic acid] | < 100 nM
O=C(O)c1[nH]nnc1NC1CCN(c2ccc(Cl)cc2)CC1 [Compound 71, 4-((1-(4-chlorophenyl)piperidin-4-yl)amino)-1H-1,2,3-triazole-5-carboxylic acid 2,2,2-trifluoroacetate] | 100 to 1000 nM
O=C(O)c1[nH]nnc1NC1CCN(c2ccc(OC(F)(F)F)cc2)C1 (centres unmarked) [Compound 73] | 100 to 1000 nM
CN(c1ccc(-c2ccc(Cl)cc2)cc1)c1nn[nH]c1C(=O)O [Compound 75, 4-((4′-chloro-[1,1′-biphenyl]-4-yl)(methyl)amino)-1H-1,2,3-triazole-5-carboxylic acid 2,2,2-trifluoroacetate] | 100 to 1000 nM
O=C(O)c1[nH]nnc1Nc1ccc(Cl)c2ccccc12 [Compound 78, 4-((4-chloronaphthalen-1-yl)amino)-1H-1,2,3-triazole-5-carboxylic acid] | 100 to 1000 nM
O=C(O)c1[nH]nnc1Oc1ccc2cc(Br)ccc2c1 [Compound 89, 4-((6-bromonaphthalen-2-yl)oxy)-1H-1,2,3-triazole-5-carboxylic acid] | < 100 nM
O=C(O)c1[nH]nnc1Oc1cc(Cl)cc(Cl)c1 [Compound 91, 4-(3,5-dichlorophenoxy)-1H-1,2,3-triazole-5-carboxylic acid] | < 100 nM
O=C(O)c1[nH]nnc1Oc1ccc2ncsc2c1 [Compound 99, 4-(benzo[d]thiazol-6-yloxy)-1H-1,2,3-triazole-5-carboxylic acid 2,2,2-trifluoroacetate] | < 100 nM
CC(=O)OCn1nnc(Oc2ccc3cc(Br)ccc3c2)c1C(=O)O [Compound 101, 1-(acetoxymethyl)-4-((6-bromonaphthalen-2-yl)oxy)-1H-1,2,3-triazole-5-carboxylic acid] | 100 to 1000 nM
CC(=O)OCOC(=O)c1[nH]nnc1Oc1ccc2cc(Br)ccc2c1 [Compound 105, acetoxymethyl 4-((6-bromonaphthalen-2-yl)oxy)-1H-1,2,3-triazole-5-carboxylate] | 1000 to 10000 nM
O=C(O)c1[nH]nnc1Oc1ccc2cc(Cl)ccc2c1 [Compound 106, 4-((6-chloronaphthalen-2-yl)oxy)-1H-1,2,3-triazole-5-carboxylic acid 2,2,2-trifluoroacetate] | < 100 nM
CC(C)C(=O)OCOC(=O)c1[nH]nnc1Oc1ccc(Cl)c(Cl)c1 [Compound 108, (isobutyryloxy)methyl 4-(3,4-dichlorophenoxy)-1H-1,2,3-triazole-5-carboxylate] | 100 to 1000 nM
CC(=O)OCOC(=O)c1[nH]nnc1Oc1ccc(Cl)c(Cl)c1 [Compound 109, acetoxymethyl 4-(3,4-dichlorophenoxy)-1H-1,2,3-triazole-5-carboxylate] | < 100 nM

Further lines, results first:

IC50 | Compound
100 to 1000 nM | O=C(O)c1[nH]nnc1NC1CCCN(c2ccc(OC(F)(F)F)cc2)C1 (centres unmarked) [Compound 70, 4-((1-(4-(trifluoromethoxy)phenyl)piperidin-3-yl)amino)-1H-1,2,3-triazole-5-carboxylic acid]
> 10000 nM | O=C(OC1CC1)c1[nH]nnc1Nc1ccc(-c2ccc(OC(F)(F)F)cc2)cc1 [Compound 72, cyclopropyl 4-((4′-(trifluoromethoxy)-[1,1′-biphenyl]-4-yl)amino)-1H-1,2,3-triazole-5-carboxylate 2,2,2-trifluoroacetate]
100 to 1000 nM | O=C(O)c1[nH]nnc1NC1CCN(c2ccc(OC(F)(F)F)cc2)CC1 [Compound 74, 4-((1-(4-(trifluoromethoxy)phenyl)piperidin-4-yl)amino)-1H-1,2,3-triazole-5-carboxylic acid]
< 100 nM | O=C(O)c1[nH]nnc1Nc1ccc2cc(Cl)ccc2n1 [Compound 76, 4-((6-chloroquinolin-2-yl)amino)-1H-1,2,3-triazole-5-carboxylic acid]
1000 to 10000 nM | O=C(O)c1[nH]nnc1Nc1ccc2c(c1)CCCC2 [Compound 77, 4-((5,6,7,8-tetrahydronaphthalen-2-yl)amino)-1H-1,2,3-triazole-5-carboxylic acid]
1000 to 10000 nM | O=C(O)c1[nH]nnc1Nc1ccc2ncsc2c1 [Compound 79, 4-(benzo[d]thiazol-6-ylamino)-1H-1,2,3-triazole-5-carboxylic acid]
100 to 1000 nM | O=C(O)c1[nH]nnc1Nc1ccc(F)c(F)c1 [Compound 80, 4-((3,4-difluorophenyl)amino)-1H-1,2,3-triazole-5-carboxylic acid]
1000 to 10000 nM | CC(C)(C)C(=O)OCOC(=O)c1[nH]nnc1Nc1ccc(-c2ccc(Cl)cc2)cc1 [Compound 81, (pivaloyloxy)methyl 4-((4′-chloro-[1,1′-biphenyl]-4-yl)amino)-1H-1,2,3-triazole-5-carboxylate]
100 to 1000 nM | O=C(O)c1[nH]nnc1Nc1ccc2cc(Cl)ccc2c1 [Compound 82, 4-((6-chloronaphthalen-2-yl)amino)-1H-1,2,3-triazole-5-carboxylic acid 2,2,2-trifluoroacetate]
100 to 1000 nM | O=C(O)c1[nH]nnc1Nc1ccc(OC(F)(F)F)cc1 [Compound 83, 4-((4-(trifluoromethoxy)phenyl)amino)-1H-1,2,3-triazole-5-carboxylic acid]
100 to 1000 nM | O=C(O)c1[nH]nnc1N1CCc2ccccc2C1 [Compound 84, 4-(3,4-dihydroisoquinolin-2(1H)-yl)-1H-1,2,3-triazole-5-carboxylic acid 2,2,2-trifluoroacetate]
< 100 nM | O=C(O)c1[nH]nnc1Nc1ccc2cc(Br)ccc2c1 [Compound 85, 4-((6-bromonaphthalen-2-yl)amino)-1H-1,2,3-triazole-5-carboxylic acid 2,2,2-trifluoroacetate]
< 100 nM | O=C(O)c1[nH]nnc1Oc1ccc(-c2ccc(OC(F)(F)F)cc2)cc1 [Compound 87, 4-((4′-(trifluoromethoxy)-[1,1′-biphenyl]-4-yl)oxy)-1H-1,2,3-triazole-5-carboxylic acid]
< 100 nM | O=C(O)c1[nH]nnc1OC1CCN(c2ccc(OC(F)(F)F)cc2)C1 (centres unmarked) [Compound 90, 4-((1-(4-(trifluoromethoxy)phenyl)pyrrolidin-3-yl)oxy)-1H-1,2,3-triazole-5-carboxylic acid]
< 100 nM | O=C(O)c1nn[nH]c1Oc1ccc(Cl)c2ccccc12 [Compound 92, 4-((4-chloronaphthalen-1-yl)oxy)-1H-1,2,3-triazole-5-carboxylic acid]
> 10000 nM | COC(=O)c1[nH]nnc1Oc1ccc2cc(Br)ccc2c1 [Compound 93, methyl 4-((6-bromonaphthalen-2-yl)oxy)-1H-1,2,3-triazole-5-carboxylate]
< 100 nM | O=C(O)c1[nH]nnc1Oc1ccc(Cl)cc1Cl [Compound 95, 4-(2,4-dichlorophenoxy)-1H-1,2,3-triazole-5-carboxylic acid]
< 100 nM | O=C(O)c1[nH]nnc1Oc1ccc(OC(F)(F)F)cc1 [Compound 96, 4-(4-(trifluoromethoxy)phenoxy)-1H-1,2,3-triazole-5-carboxylic acid]
< 100 nM | O=C(O)c1[nH]nnc1Oc1ccc2c(c1)CCCC2 [Compound 97, 4-((5,6,7,8-tetrahydronaphthalen-2-yl)oxy)-1H-1,2,3-triazole-5-carboxylic acid]
< 100 nM | O=C(O)c1[nH]nnc1Oc1cc(Cl)ccc1Cl [Compound 100, 4-(2,5-dichlorophenoxy)-1H-1,2,3-triazole-5-carboxylic acid]
1000 to 10000 nM | CC(C)(C)C(=O)OCOC(=O)c1[nH]nnc1Oc1ccc(Cl)c(Cl)c1 [Compound 107, (pivaloyloxy)methyl 4-(3,4-dichlorophenoxy)-1H-1,2,3-triazole-5-carboxylate]
